“And” between values parts separate entries of the source, which are not always exact repeats. Equal entries are not always repeated.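 1) Cells in 96-well plates. 2) Compound, 48 h, 5 concentrations. 3) Linear interpolation between surrounding doses. 4) Unreached endpoint = highest concentration. The concentration for 50% growth inhibition is given as GI50. TGI: total growth inhibition.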
Legend:
Experiment in all cases: DTP human tumour cell line panel, 48 h
[1] = test system: HCC-2998 colon
[2] = test system: OVCAR-4 ovarian
[3] = test system: SNB-75 CNS
[4] = test system: CCRF-CEM leukemia
[5] = test system: SF-539 CNS
[6] = test system: KM12 colon
[7] = test system: COLO 205 colon
[8] = test system: HS 578T breast
[9] = test system: HCT-15 colon
[10] = test system: SNB-19 CNS
[11] = test system: IGROV1 ovarian
[12] = test system: HOP-92 NSCLC
[13] = test system: MCF7 breast
[14] = test system: K-562 leukemia
[15] = test system: LOX IMVI melanoma
[16] = test system: SK-MEL-2 melanoma
[17] = test system: RXF 393 renal

Cc1ccc(S(=O)(=O)NN=C2C(C)CC(C(C)(C)C)CC2C)cc1 (stereo not given)
TGI [1]: 32.1 µM | TGI [2]: 29.1 µM | TGI [3]: 37.8 µM | TGI [4]: 41.8 µM | TGI [5]: > 100 µM | TGI [6]: 31.4 µM | TGI [7]: 34.5 µM | TGI [8]: > 100 µM | TGI [9]: 34.4 µM | TGI [10]: 66 µM | TGI [11]: > 100 µM | TGI [12]: 30.1 µM | TGI [13]: 38.6 µM | TGI [14]: 44.1 µM | TGI [15]: 33.2 µM | TGI [16]: 32.9 µM

O=C(c1ccccc1)c1ccc(N2C(=O)/C(=C/c3cccc([N+](=O)[O-])c3)N=C2c2ccccc2)c(N2C(=O)/C(=C/c3cccc([N+](=O)[O-])c3)N=C2c2ccccc2)c1
TGI [1]: 60.1 µM | TGI [2]: > 100 µM | TGI [3]: 81.6 µM | TGI [5]: > 100 µM | TGI [6]: > 100 µM | TGI [7]: 11.1 µM | TGI [8]: > 100 µM | TGI [9]: > 100 µM | TGI [10]: > 100 µM | TGI [11]: > 100 µM | TGI [12]: > 100 µM | TGI [13]: > 100 µM | TGI [14]: > 100 µM | TGI [15]: > 100 µM | TGI [16]: > 100 µM

NC(=S)Nc1c(S(N)(=O)=O)cc(S(N)(=O)=O)c(Cl)c1Cl
TGI [17]: > 100 µM | TGI [2]: > 100 µM | TGI [3]: > 100 µM | TGI [4]: > 100 µM | TGI [5]: > 100 µM | TGI [6]: > 100 µM | TGI [7]: > 100 µM | TGI [8]: > 100 µM | TGI [9]: > 100 µM | TGI [10]: > 100 µM | TGI [11]: > 100 µM | TGI [12]: > 100 µM | TGI [13]: > 100 µM | TGI [14]: > 100 µM | TGI [15]: > 100 µM | TGI [16]: > 100 µM

Cc1cc(C)c2c(=O)cc(-c3ccccc3)[nH]c2c1
TGI [17]: 5.11 µM | TGI [2]: 31 µM | TGI [3]: 19.3 µM | TGI [4]: > 100 µM | TGI [5]: 8.11 µM | TGI [6]: 22.1 µM | TGI [7]: > 52 µM | TGI [8]: 21.2 µM | TGI [9]: > 67.1 µM | TGI [10]: > 100 µM | TGI [11]: 35.4 µM | TGI [12]: 59.5 µM | TGI [13]: 22.2 µM | TGI [14]: > 100 µM | TGI [15]: 41.2 µM | TGI [16]: 55.9 µM

Cc1cc(N(C)C)ccc1N=Nc1ccc2ncccc2c1
TGI [17]: > 100 µM | TGI [3]: > 100 µM | TGI [4]: > 100 µM | TGI [5]: > 100 µM | TGI [6]: > 100 µM | TGI [7]: > 100 µM | TGI [8]: > 100 µM | TGI [9]: > 100 µM | TGI [10]: 94 µM | TGI [11]: > 100 µM | TGI [12]: > 100 µM | TGI [13]: > 100 µM | TGI [14]: > 100 µM | TGI [16]: > 100 µM

COc1cc(Br)cc2c1O[C@H]1C(=O)CC3CC21CCN3C (stereo not given in full)
TGI [1]: > 100 µM | TGI [4]: 43.9 µM | TGI [5]: > 100 µM | TGI [6]: > 100 µM | TGI [7]: > 100 µM | TGI [8]: > 100 µM | TGI [9]: > 100 µM | TGI [10]: > 100 µM | TGI [11]: > 100 µM | TGI [13]: > 100 µM | TGI [14]: 46.3 µM | TGI [15]: > 100 µM | TGI [16]: > 100 µM

CC(=O)OCC(OC(C)=O)C(OC(C)=O)C(/C=N\Nc1nc2ccccc2c(=O)[nH]1)OC(C)=O (stereo not given)
TGI [3]: > 100 µM | TGI [4]: > 100 µM | TGI [5]: > 100 µM | TGI [6]: > 100 µM | TGI [7]: > 100 µM | GI50 [8]: 40.6 µM and 88.4 µM | TGI [8]: > 100 µM | TGI [9]: > 100 µM | TGI [10]: > 100 µM | TGI [11]: > 100 µM | TGI [12]: > 100 µM | TGI [13]: > 100 µM | TGI [14]: > 100 µM | TGI [15]: > 100 µM | TGI [16]: > 100 µM

Reference: PubChem BioAssay (NCI)
